Test results taken from ChEMBL document CHEMBL1201862, “PubChem BioAssay data set” (2004).
Calls of active or inactive are those of the source.

Assays:
[1] = M. tuberculosis H37Rv growth inhibitors, H37Rv strain (AID 1626); format: functional
[2] = HEp-2 cell cytotoxicity, dose response, cytotoxicity control for RSV inhibitor project, HTS (AID 2410); format: functional; settings: human respiratory syncytial virus
Vero = test: cells; format: functional, cell-based; settings: Chlorocebus sabaeus
cells [3] = test: cells
[4] = target: NAD-dependent protein deacylase sirtuin-5, mitochondrial (Homo sapiens, UniProt Q9NXA8); test: SIRT5 desuccinylase inhibitors, dose response, biochemical, fluorescence imaging, cherry-pick, set 5 (AID 720591);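 note: desuccinylation of succinyl peptide AMC substrate read as fluorescence after trypsin release; potency of inhibitors that lower fluorescence and may act on trypsin instead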
Sequence of NAD-dependent protein deacylase sirtuin-5, mitochondrial (Q9NXA8 whole entry): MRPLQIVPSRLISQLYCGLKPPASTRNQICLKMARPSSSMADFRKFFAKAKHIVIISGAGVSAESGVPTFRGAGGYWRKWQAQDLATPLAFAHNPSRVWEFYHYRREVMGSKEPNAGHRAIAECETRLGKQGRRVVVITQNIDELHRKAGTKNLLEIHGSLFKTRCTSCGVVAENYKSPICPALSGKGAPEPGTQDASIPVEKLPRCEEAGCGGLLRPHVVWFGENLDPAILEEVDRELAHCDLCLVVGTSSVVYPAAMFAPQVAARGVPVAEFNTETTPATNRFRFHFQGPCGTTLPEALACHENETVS

[5] = target: T1, Mannose-6-phosphate isomerase (Homo sapiens, UniProt P34949); test: human PMI inhibitors, high substrate, primary screen, biochemical, fluorescence intensity, high mannose 6-phosphate (AID 1220)
T1 sequence (P34949 whole entry): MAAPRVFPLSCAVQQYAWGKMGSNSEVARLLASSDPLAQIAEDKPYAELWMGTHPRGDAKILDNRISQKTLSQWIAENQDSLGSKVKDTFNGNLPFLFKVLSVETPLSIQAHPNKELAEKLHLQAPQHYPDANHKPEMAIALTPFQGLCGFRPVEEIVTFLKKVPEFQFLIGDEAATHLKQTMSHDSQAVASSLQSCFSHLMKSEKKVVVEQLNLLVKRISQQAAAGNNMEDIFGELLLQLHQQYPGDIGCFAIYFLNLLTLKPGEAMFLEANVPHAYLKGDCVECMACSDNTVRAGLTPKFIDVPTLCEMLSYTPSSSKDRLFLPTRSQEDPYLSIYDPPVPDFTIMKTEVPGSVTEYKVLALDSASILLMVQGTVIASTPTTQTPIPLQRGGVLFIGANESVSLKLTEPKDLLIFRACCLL

cells [6] = format: functional, cell-based
H4 = test: Luminescence Cell-Based Dose Response HTS to Identify Activators of 5'UTR Stem-Loop Driven Prion Protein mRNA Translation in H4 Neuroglioblastoma Cells. [Related pubchem assays: 1829 (Project Summary), 1814 (Primary HTS)]; format: functional; settings: Homo sapiens
cells [7] = format: functional, cell-based; remark: listed apart in the source
[8] = target: T2, Trace amine-associated receptor 1 (Homo sapiens, UniProt Q96RJ0); test: Counterscreen for agonists of the human trace amine associated receptor 1 (hTAAR1): Fluorescence-based cell-based high throughput dose response assay to identify hTAAR1 agonist that also desensitize TAAR1 receptor response.; format: functional
T2 sequence (Q96RJ0 whole entry): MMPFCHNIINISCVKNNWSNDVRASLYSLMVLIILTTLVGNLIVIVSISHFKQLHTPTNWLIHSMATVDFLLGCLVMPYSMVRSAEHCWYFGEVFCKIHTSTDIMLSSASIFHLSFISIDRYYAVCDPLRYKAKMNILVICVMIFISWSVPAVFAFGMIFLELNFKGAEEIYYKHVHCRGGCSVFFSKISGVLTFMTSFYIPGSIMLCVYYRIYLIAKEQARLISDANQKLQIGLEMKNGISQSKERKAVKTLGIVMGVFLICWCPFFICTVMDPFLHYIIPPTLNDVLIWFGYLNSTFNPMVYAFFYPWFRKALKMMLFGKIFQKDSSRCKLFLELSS

[9] = Luminescence Cell-Based Dose Confirmation HTS to Identify Activators of 5'UTR Stem-Loop Driven Alpha-Synuclein mRNA Translation in H4 Neuroglioblastoma Cells. [Related pubchem assays: 1829 (Project Summary), 1814 (Primary HTS)]; format: functional
[10] = Luminescence Cell-Based Dose Response HTS to Identify Activators of Luciferase Translation or Activity in H4 […] Cells. [Related pubchem assays: 1829 (Project Summary), 1814 (Primary HTS)]; format: functional
[11] = target: T2, Trace amine-associated receptor 1; test: Fluorescence-based cell-based high throughput dose response assay to identify agonists of the human trace amine associated receptor 1 (TAAR1).; format: functional
[12] = THP-1 cell cytotoxicity, dose response, cytotoxicity control for Vif-APOBEC3G degradation inhibitor project, THP-1 cells (AID 1117359); format: functional; settings: Human immunodeficiency virus 1, THP-1

## O=C(COC(=O)c1ccccc1Br)Nc1ccccc1F
[1]
  IC50: > 100 µM (active)

## Cc1cc(NC(=O)C(C)SCC(=O)N(Cc2ccccc2)c2ccccc2)no1 (stereo unspecified)
[2]
  CC50: 29.9 µM (active)
Vero
  IC50: > 25 µM (active)
Cells [3]
  IC50: 39.6 µM (active)

## Oc1nc(Cc2ccc(F)cc2)nc2scc(-c3ccc(F)cc3)c12
[4]
  AC50: 18 µM (active)

## Cc1c(C(=O)NC(C)C)oc2c1-c1n[nH]cc1CC2
[5]
  IC50: > 50 µM (not active)

## COc1ccc(OC(=O)NCCc2ccccc2)cc1
Cells [6]
  EC50: > 29.9 µM (inactive)
H4
  EC50: 16.1 µM (active)
Cells [7]
  IC50: > 29.9 µM (inactive)
[8]
  IC50: > 29.9 µM (inactive)
[9]
  EC50: 29 µM (active)
[10]
  EC50: 49 µM (active)
[11]
  EC50: 0.535 µM (active)

## Cn1cccc1/C=C1/C(=O)NC(=O)N(Cc2ccccc2)C1=O
[12]
  CC50: > 40 µM (active)

## COc1ccccc1CCNC(=O)C(=O)NCC1OCCN1S(=O)(=O)c1ccc(C)cc1 (stereo unspecified)
Cells [6]
  EC50: > 29.9 µM (inactive)
Cells [7]
  IC50: > 29.9 µM (inactive)
[8]
  IC50: 7.91 µM (active)
[11]
  EC50: 2.51 µM (active)

## C/C(N)=C(/C#N)C(=O)COC(=O)c1ccccc1Cc1ccccc1
[2]
  CC50: 32.2 µM (active)
Cells [3]
  IC50: 45 µM (active)

## O=C(/C=C/C(=O)N1CCc2ccccc2C1)N1CCc2ccccc2C1
Cells [6]
  EC50: > 29.9 µM (inactive)
Cells [7]
  IC50: > 29.9 µM (inactive)
[8]
  IC50: 4.67 µM (active)
[11]
  EC50: 1.14 µM (active)

## O/N=C/c1ccc(-c2cc(Cl)ccc2Cl)o1
[1]
  IC50: > 100 µM (active)

## Nc1nnc(SCc2ccc(F)cc2)s1
[1]
  IC50: > 100 µM (active)
